The values that follow come from patent US10874675B2, “Pteridine dione monocarboxylate transporter inhibitors” (The Scripps Research Institute, priority 2015, dated 2020).

Some results are limits rather than exact numbers.

The subject of this assay is Raji (Burkitt's) lymphoma cells. The experiment in a line: MTT assay for 4-day viability of Raji (Burkitt's) lymphoma cells. Type of assay: cell-based. The conditions noted are these: Homo sapiens, 96 h, Raji cells (highly express MCT1), estimated values, read-out: approximate potency (EC50 nM). From the text:
Specific Examples of compounds of the invention, with estimated EC50 values determined using an MTT assay for 4-day viability of Raji (Burkitt's) lymphoma cells, a cell line known to highly express MCT1 and to be sensitive to small molecule MCT inhibitors,^4 are shown in Table 3. Assay protocols follow those described in the literature.^4 Other assays that are not described here but that are standard in the field, such as an assay for competitive inhibition of transport of radiolabeled lactic acid, an MCT substrate, may also be useful in establishing mechanism of action of these compounds.
Turning to `CC(C)Cn1c(=O)n(C)c(=O)c2nc(CCCCCO)c(COc3cccc4ccccc34)nc21` [Example 2, 6-(5-hydroxypentyl)-1-isobutyl-3-methyl-7-((naphthalen-1-yloxy)methyl)pteridine-2,4(1H,3H)-dione], the EC50 was below 50 nM.

For `CC(C)Cn1c(=O)n(C)c(=O)c2nc(CCCCCO)c(COc3cncc4ccccc34)nc21` [Example 5], the EC50 is below 50 nM.

With `CC(C)Cn1c(=O)n(C)c(=O)c2nc(CCCCCO)c(COc3cccc4[nH]ccc34)nc21` [Example 6, 7-(((1H-indol-4-yl)oxy)methyl)-6-(5-hydroxypentyl)-1-isobutyl-3-methylpteridine-2,4(1H,3H)-dione], the EC50 was below 50 nM.

Consider `CC(C)Cn1c(=O)n(C)c(=O)c2nc(CCCCCO)c(COc3ccccc3C(F)(F)F)nc21` [Example 7, 6-(5-hydroxypentyl)-1-isobutyl-3-methyl-7-((2-(trifluoromethyl)phenoxy)methyl)pteridine-2,4(1H,3H)-dione], for which the EC50 was below 50 nM.

As for `CC(C)Cn1c(=O)n(C)c(=O)c2nc(CCCCCO)c(COc3ccc([N+](=O)[O-])c4ccccc34)nc21` [Example 8, 6-(5-hydroxypentyl)-1-isobutyl-3-methyl-7-(((4-nitronaphthalen-1-yl)oxy)methyl)pteridine-2,4(1H,3H)-dione], the EC50 is 300 nM.

With `CC(C)Cn1c(=O)n(C)c(=O)c2nc(CCCCCO)c(COc3ccc(N)c4ccccc34)nc21` [Example 9, 7-(((4-aminonaphthalen-1-yl)oxy)methyl)-6-(5-hydroxypentyl)-1-isobutyl-3-methylpteridine-2,4(1H,3H)-dione], the EC50 was below 50 nM.

In the case of `CC(C)Cn1c(=O)n(C)c(=O)c2nc(CCCCCO)c(COc3ccc4ccccc4c3)nc21` [Example 10], the concentration for a half-maximal effect (EC50) is below 50 nM.

In the case of `CC(C)Cn1c(=O)n(C)c(=O)c2nc(CCCCCO)c(COc3ccccc3Br)nc21` [Example 11, 7-((2-bromophenoxy)methyl)-6-(5-hydroxypentyl)-1-isobutyl-3-methylpteridine-2,4(1H,3H)-dione], the EC50 is below 50 nM.

Consider `CC(C)Cn1c(=O)n(C)c(=O)c2nc(CCCCCO)c(COc3ccnc4ccccc34)nc21` [Example 12, 6-(5-hydroxypentyl)-1-isobutyl-3-methyl-7-((quinolin-4-yloxy)methyl)pteridine-2,4(1H,3H)-dione], for which the EC50 is below 50 nM.

As to `CC(C)Cn1c(=O)n(C)c(=O)c2nc(CCCCCO)c(COc3ccccc3Cl)nc21` [Example 13, 7-((2-chlorophenoxy)methyl)-6-(5-hydroxypentyl)-1-isobutyl-3-methylpteridine-2,4(1H,3H)-dione], the EC50 is below 50 nM.

Consider `CC(C)Cn1c(=O)n(C)c(=O)c2nc(CCCCCO)c(COc3ccc(-c4ccccc4)cc3)nc21` [Example 14, 7-(([1,1′-biphenyl]-4-yloxy)methyl)-6-(5-hydroxypentyl)-1-isobutyl-3-methylpteridine-2,4(1H,3H)-dione], for which the 50% effective concentration (EC50) is at most 100 nM.

For the compound `CC(C)Cn1c(=O)n(C)c(=O)c2nc(CCCCCO)c(COc3ccccc3)nc21` [Example 15, 6-(5-hydroxypentyl)-1-isobutyl-3-methyl-7-(phenoxymethyl)pteridine-2,4(1H,3H)-dione], the EC50 was at most 100 nM.

Turning to `CC(C)Cn1c(=O)n(C)c(=O)c2nc(CCCCCO)c(COc3cccc(C(F)(F)F)c3)nc21` [Example 16, 6-(5-hydroxypentyl)-1-isobutyl-3-methyl-7-((3-(trifluoromethyl)phenoxy)methyl)pteridine-2,4(1H,3H)-dione], the EC50 is at most 100 nM.

As for `CC(C)Cn1c(=O)n(C)c(=O)c2nc(CCCCCO)c(COc3ccccc3F)nc21` [Example 17, 7-((2-fluorophenoxy)methyl)-6-(5-hydroxypentyl)-1-isobutyl-3-methylpteridine-2,4(1H,3H)-dione], the EC50 is at most 100 nM.

Turning to `CC(C)Cn1c(=O)n(C)c(=O)c2nc(CCCCCO)c(COc3ccc4ncccc4c3)nc21` [Example 18, 6-(5-hydroxypentyl)-1-isobutyl-3-methyl-7-((quinolin-6-yloxy)methyl)pteridine-2,4(1H,3H)-dione], the EC50 is at most 100 nM.

As for `CC(C)Cn1c(=O)n(C)c(=O)c2nc(CCCCCO)c(COc3ccc(Br)cc3Br)nc21` [Example 19, 7-((2,4-dibromophenoxy)methyl)-6-(5-hydroxypentyl)-1-isobutyl-3-methylpteridine-2,4(1H,3H)-dione], the EC50 was at most 250 nM.

As to `CC(C)Cn1c(=O)n(C)c(=O)c2nc(CCCCCO)c(COc3ccc4cccnc4c3)nc21` [Example 20, 6-(5-hydroxypentyl)-1-isobutyl-3-methyl-7-((quinolin-7-yloxy)methyl)pteridine-2,4(1H,3H)-dione], the EC50 was at most 250 nM.

For the compound `CC(C)Cn1c(=O)n(C)c(=O)c2nc(CCCCCO)c(COc3ccc(Cl)cc3Br)nc21` [Example 21, 7-((2-bromo-4-chlorophenoxy)methyl)-6-(5-hydroxypentyl)-1-isobutyl-3-methylpteridine-2,4(1H,3H)-dione], the EC50 is at most 250 nM.

As for `CC(C)Cn1c(=O)n(C)c(=O)c2nc(CCCCCO)c(COc3ccc(C(F)(F)F)cc3)nc21` [Example 22, 6-(5-hydroxypentyl)-1-isobutyl-3-methyl-7-((4-(trifluoromethyl)phenoxy)methyl)pteridine-2,4(1H,3H)-dione], the EC50 was at most 250 nM.

Take `CC(C)Cn1c(=O)n(C)c(=O)c2nc(CCCCCO)c(COc3ccccc3-c3ccccc3)nc21` [Example 23, 7-(([1,1′-biphenyl]-2-yloxy)methyl)-6-(5-hydroxypentyl)-1-isobutyl-3-methylpteridine-2,4(1H,3H)-dione]: the EC50 was at most 250 nM.

On to `CC(C)Cn1c(=O)n(C)c(=O)c2nc(CCCCCO)c(COc3cc(F)ccc3Br)nc21` [Example 24, 7-((2-bromo-5-fluorophenoxy)methyl)-6-(5-hydroxypentyl)-1-isobutyl-3-methylpteridine-2,4(1H,3H)-dione], for which the EC50 was at most 250 nM.

In the case of `CC(C)Cn1c(=O)n(C)c(=O)c2nc(CCCCCO)c(COc3cccc4ccncc34)nc21` [Example 25, 6-(5-hydroxypentyl)-1-isobutyl-7-((isoquinolin-8-yloxy)methyl)-3-methylpteridine-2,4(1H,3H)-dione], the EC50 is at most 250 nM.

In the case of `CC(C)Cn1c(=O)n(C)c(=O)c2nc(CCCCCO)c(COc3cccc4cccnc34)nc21` [Example 26, 6-(5-hydroxypentyl)-1-isobutyl-3-methyl-7-((quinolin-8-yloxy)methyl)pteridine-2,4(1H,3H)-dione], the EC50 is at most 500 nM.

With `CC(C)Cn1c(=O)n(C)c(=O)c2nc(CCCCCO)c(COc3cc4ccccc4cn3)nc21` [Example 27, 6-(5-hydroxypentyl)-1-isobutyl-7-((isoquinolin-3-yloxy)methyl)-3-methylpteridine-2,4(1H,3H)-dione], the EC50 was at most 500 nM.

On to `CC(C)Cn1c(=O)n(C)c(=O)c2nc(CCCCCO)c(COc3ccncc3)nc21` [Example 28, 6-(5-hydroxypentyl)-1-isobutyl-3-methyl-7-((pyridin-4-yloxy)methyl)pteridine-2,4(1H,3H)-dione], for which the EC50 is at most 1000 nM.

Turning to `CC(C)Cn1c(=O)n(C)c(=O)c2nc(CCCCCO)c(COc3c(Br)cc(Br)c4cnccc34)nc21` [Example 29, 7-(((6,8-dibromoisoquinolin-5-yl)oxy)methyl)-6-(5-hydroxypentyl)-1-isobutyl-3-methylpteridine-2,4(1H,3H)-dione], the concentration giving a half-maximal response (EC50) was at most 1000 nM.

As usually defined, the EC50 is the concentration giving half of the maximal effect.
